By melting point is commonly meant the temperature, or range, at which the solid turns liquid.

Molecules are shown by their SMILES. Where two headings read alike, the source gives them in different places.

30 compounds from patent US9150534B2, “Prodrugs of fluorinated mevalonates to inhibit the mevalonate pathway of Streptococcus pneumoniae” (Northwestern University, priority 2012, dated 2015) can be followed below.

Data set [1] is described as follows: Evaluation of stability in PBS buffer (pH=7.4), HPLC. The format is physicochemical. To be noted: for half-life at 1 mM: PBS buffer pH=7.4, 37° C., read-out: half-life time (T1/2) in PBS buffer (converted). Here is the method:
The stabilities of several cyclic carbonate analogues in PBS buffer (pH=7.4) were tested first to determine the standard level of the drug decomposition by media (Table 1). PBS (phosphate buffered saline) buffer is a standard solution used in plasma stability tests. […] After the compounds were incubated in PBS buffer at 37° C., the degradation of the compounds with incubation time was monitored. As the number of fluorines at the C6 position was increased, the half-life time (T1/2) of the molecule was decreased dramatically (4 vs 25 vs 35). T1/2 of the C6-methyl analogue (4) was more than 48 hours and T1/2 of C6-monofluoromethyl analogues (25, 29, and 30) were about 25 hours while T1/2 of C6-trifluoromethyl analogues (35, 39, and 40) were about 5 hours. If the substitution of C-6 position (CH3, CH2F, or CF3) was same, T1/2 of diverse benzyl esters (benzyl, 4-fluorobenzyl, or 2,4-difluorobenzyl) were not dramatically changed. […] These half-lives of benzyl esters and cyclic carbonates in PBS buffer were sufficient to use these promoieties for the penetration of the cell membrane.
The stock solution of the test compound (10 mM in acetonitrile, 50 μL) was added to PBS buffer (pH=7.4, 450 μL), and the mixture was incubated at 37° C. Aliquots of the samples were analyzed directly by HPLC (See below). These tests were conducted two times in each compound.
(§1) Analysis was performed on a Phenomenex® Luna C18 column (250×4.6 mm) eluted with a gradient conditions of acetonitrile and H2O. Detection was by UV absorbance at 257 nm or total count of single ion in Agilent 6210 LC-TOF mass spectra.

The nature of data set [2]: Evaluation of stability in human plasma, HPLC or LC-TOF. The format is in vitro ADME. Here is the method: The stabilities of diverse cyclic carbonate prodrugs (4, 9, 10, 11, 17, 18, 19, 25, 29, 30, 39, 40, and 41), which have a chromosphere for UV detection, in human plasma were tested using HPLC. After the mixture of test compounds and human plasma were incubated at 37° C., the degradation of the compounds was monitored by HPLC (Table 2). […] The peaks of the corresponding diols (3, 24, or 34), which were the compounds that result when only the carbonate moiety of the analogues was hydrolyzed, were not observed. The half-lives of the benzyl or phenyl ester moieties may be shorter than carbonate, under tested conditions for such compounds to be used effectively as prodrugs.
Human plasma (100%, 480 μL) was incubated at 37° C. for 5 min. The stock solution of the test compound (100 mM in acetonitrile, 20 μL) was added to the human plasma, and the mixture was incubated at 37° C. Aliquots (80 μL) of the plasma samples were removed and mixed with an equal volume of acetonitrile. The mixture was stirred vigorously and centrifuged (5500 rpm, 5 min). The supernatant was filtered and the filtrate was analyzed by HPLC or LC-TOF (See below). These tests were conducted two times in each compound.
as §1

The mark [3] stands for this setting: human, human plasma (100%), 37° C., read-out: half-life (T1/2) in human plasma.
Setting [4] is: human, human plasma (100%), 37° C., read-out: T1/2 (half-lives of diverse carbonate in human plasma).
The mark [5] stands for this setting: human, human plasma (100%), 37° C., read-out: T1/2 (stabilities of the benzyl amide analogues with acetal, ketal, t-butyl carbonate promoieties in human plasma).
Where [6] appears, read: read-out: half-life of the ester moieties on the carboxylic acids.

The compound `COC(=O)CC1(CF)CCOC(=O)O1` (stereo not drawn) showed a melting point of 42 to 42.5 °C.
`CC1(CC(=O)OCc2ccccc2)CCOC(=O)O1` (stereo not drawn) [compound 4]: the half-life at 1 mM in data set [1] was more than 48 h. For the same compound, in data set [2] (setting [3]), the half-life at 4 mM is 4 min.
Turning to `CC1(CC(=O)Oc2ccccc2)CCOC(=O)O1` (stereo not drawn) [compound 9], the melting point is 62 to 62.5 °C. Further, in data set [2] (setting [3]), the half-life at 4 mM was less than 3 min.
In the same order, the values of `CC1(CC(=O)Oc2ccc(F)cc2)CCOC(=O)O1` (stereo not drawn) [compound 10] are 68 to 69 °C and less than 3 min.
As for `CC1(CC(=O)Oc2ccc3c(c2)CCC3)CCOC(=O)O1` (stereo not drawn) [compound 11], the melting point fell in the range of 88 to 89 °C. In addition, the half-life at 4 mM in data set [2] (setting [4]) is less than 3 min. For the same compound, the half-life at 4 mM in data set [2] (setting [3]) was less than 3 min.
As to `CC1(CC(=O)Nc2ccccc2)CCOC(=O)O1` (stereo not drawn) [compound 17], the half-life at 4 mM in data set [2] (setting [3]) is less than 3 min.
Turning to `CC1(CC(=O)NCc2ccccc2)CCOC(=O)O1` (stereo not drawn) [compound 18], the half-life at 4 mM in data set [2] (setting [3]) is 8 min.
Same read-out and setting: to `CC1(CC(=O)NCc2ccc(F)cc2)CCOC(=O)O1` (stereo not drawn) [compound 19] belongs 8 min.
On to `O=C(CC1(CF)CCOC(=O)O1)OCc1ccccc1` (stereo not drawn) [compound 25], for which the half-life at 1 mM in data set [1] was approximately 25 h. The “T1/2 (half-lives of diverse carbonate in human plasma)” value in data set [2] (37° C.) is listed as 2 min. Also, in data set [2] (setting [3]), the half-life at 4 mM is less than 3 min.
In the same order, the values of `O=C(CC1(CF)CCOC(=O)O1)OCc1ccc(F)cc1` (stereo not drawn) [compound 29] are approximately 25 h, 2 min and less than 3 min.
Take `O=C(CC1(CF)CCOC(=O)O1)OCc1ccc(F)cc1F` (stereo not drawn) [compound 30]: in data set [1], the half-life at 1 mM was approximately 25 h. Further, the “T1/2 (half-lives of diverse carbonate in human plasma)” value in data set [2] (37° C.) is given as 1 min. Also, the half-life at 4 mM in data set [2] (setting [3]) is less than 3 min.
Turning to `O=C(CC1(C(F)(F)F)CCOC(=O)O1)OCc1ccccc1` (stereo not drawn) [compound 35], the melting point lay within 87.5 to 88 °C. Further, the half-life at 1 mM in data set [1] was approximately 5 h. Moreover, the “peak of 34 (carbonate moiety decomposition product) in HPLC” value in data set [1] (degradation of 35 in PBS buffer) is recorded as “not observed”. In addition, in data set [2] (37° C.), the “T1/2 (half-lives of diverse carbonate in human plasma)” value was less than 1 min. Also, the half-life at 4 mM in data set [2] (setting [3]) was less than 3 min.
For the compound `O=C(CC1(C(F)(F)F)CCOC(=O)O1)OCc1ccc(F)cc1` (stereo not drawn) [compound 39], the melting point was 84 to 85 °C. Moreover, the half-life at 1 mM in data set [1] is approximately 5 h. The “T1/2 (half-lives of diverse carbonate in human plasma)” value in data set [2] (37° C.) is listed as less than 1 min. Besides, the half-life at 4 mM in data set [2] (setting [3]) was less than 3 min.
As for `O=C(CC1(C(F)(F)F)CCOC(=O)O1)OCc1ccc(F)cc1F` (stereo not drawn) [compound 40], the half-life at 1 mM in data set [1] was approximately 5 h. In data set [2] (37° C.), the “T1/2 (half-lives of diverse carbonate in human plasma)” value is less than 1 min. In addition, the half-life at 4 mM in data set [2] (setting [3]) is less than 3 min.
On to `O=C(CC1(C(F)(F)F)CCOC(=O)O1)OCCc1ccccc1` (stereo not drawn) [compound 41], for which the figures for the half-life at 4 mM in data set [2] (setting [4]) and in data set [2] (setting [3]) were 4 min and less than 3 min, respectively.
In the case of `CC1(CC(=O)NCc2ccccc2)CCOCO1` (stereo not drawn) [compound 45], the “T1/2 (stabilities of the benzyl amide analogues with acetal, ketal, t-butyl carbonate promoieties in human plasma)” value in data set [2] (37° C.) is listed as more than 48 h.
Still for that read-out and setting: to `O=C(CC1(C(F)(F)F)CCOCO1)NCc1ccccc1` (stereo not drawn) [compound 46] belongs more than 48 h; to `CC1(CC(=O)NCc2ccccc2)CCOC(C)(C)O1` (stereo not drawn) [compound 47], more than 48 h.
As to `CC1(C)OCCC(CC(=O)NCc2ccccc2)(C(F)(F)F)O1` (stereo not drawn) [compound 48], the half-life at 4 mM in data set [2] (setting [5]) is more than 2880 min.
With `CC1(CC(=O)NCc2ccccc2)CCOC(c2ccccc2)O1` (stereo not drawn) [compound 49], in data set [2] (37° C.), the “T1/2 (stabilities of the benzyl amide analogues with acetal, ketal, t-butyl carbonate promoieties in human plasma)” value is reported as more than 48 h.
Take `O=C(CC1(C(F)(F)F)CCOC(c2ccccc2)O1)NCc1ccccc1` (stereo not drawn) [compound 50]: the “T1/2 (stabilities of the benzyl amide analogues with acetal, ketal, t-butyl carbonate promoieties in human plasma)” value in data set [2] (37° C.) is on record as more than 48 h.
The same measure, in the same setting: with `COc1ccc(C2OCCC(CC(=O)NCc3ccccc3)(C(F)(F)F)O2)cc1` (stereo not drawn) [compound 51] the figure was more than 48 h.
For the compound `COc1ccc(C2OCCC(CC(=O)NCc3ccccc3)(C(F)(F)F)O2)cc1` (stereo not drawn) [compound 52], in data set [2] (setting [5]), the half-life at 4 mM is more than 2880 min.
For `COc1ccc(C2OCCC(CC(=O)NCc3ccccc3)(C(F)(F)F)O2)c(OC)c1` (stereo not drawn) [compound 53], the “T1/2 (stabilities of the benzyl amide analogues with acetal, ketal, t-butyl carbonate promoieties in human plasma)” value in data set [2] (37° C.) was more than 48 h.
Still for that read-out and setting: to `CC(O)(CCOC(=O)OC(C)(C)C)CC(=O)NCc1ccccc1` (stereo not drawn) [compound 54] belongs more than 48 h; to `CC(C)(C)OC(=O)OCCC(O)(CC(=O)NCc1ccccc1)C(F)(F)F` (stereo not drawn) [compound 55], more than 48 h.
Consider `CC(O)(CCO)CC(=O)NCc1c(F)c(F)c(F)c(F)c1F` (stereo not drawn) [compound 56], for which the “T1/2 (stabilities of amide and ester analogues in human plasma)” value in data set [2] (37° C.) is more than 120 min.
For the compound `COC(=O)CC(O)(CF)CCOC(C)=O` (stereo not drawn) [compound 63], in data set [2] (37° C.), the “T1/2 (stabilities of amide and ester analogues in human plasma)” value was found to be 10 min. Also, the half-life at 4 mM in data set [2] (setting [6]) was in the range of 10 to 22 min.
In the same order, the values of `CCOC(=O)CC(O)(CF)CCOC(C)=O` (stereo not drawn) [compound 64] are 11 min and 10 to 22 min.
For `CC(=O)OCCC(O)(CF)CC(=O)NCc1ccccc1` (stereo not drawn) [compound 65], the half-life at 4 mM in data set [2] (human, human plasma (100%), 37° C., read-out: T1/2 (stabilities of amide and ester analogues in human plasma)) was 20 min; in data set [2] (human, human plasma (100%), read-out: half-life of the acetyl groups on the alcohol), approximately 20 min.
